Where a SMILES comes first, the peptide text is derived from it. The star is where a group is joined. Cbz = O=C(OCc1ccccc1)*
Tested on: Stat-1-specific proteases in PBMC extracts
Assay: Effect of protease inhibitors on Stat-1 protein degradation in mixed PBMC extracts (Western blot)
Assay type: biochemical, human
Settings: healthy control PBMC extract mixed with CFS patient PBMC extract (RNase L ratio=3.0), 37 C, 15 minutes; inhibitor 50 micromolar final concentration; anti-Stat-1 Western blot (FIG. 4)
Method: One of the two extracts used was from a healthy control (i.e., RNase L ratio<0.2; no protease present, detectable levels of Stat-1 protein). The other extract was from a patient with CFS (i.e., RNase L ratio>2.0; protease(s) present, no detectable level of Stat-1 protein).
Sixty (60) micrograms of PBMC extract from the healthy control was mixed with 60 micrograms of PBMC extract from a CFS patient and incubated at 37 C for 15 minutes in the presence of a) buffer only, b) DMSO (solvent for the protease inhibitors), c) Calpastatine, 50 micromolar final concentration, d) Calpain Inhibitor Type I, 200 micromolar final concentration, e) Calpain Inhibitor Type II, 200 micromolar final concentration, f) Caspase 3 Inhibitor Type II, 5 micromolar final concentration, or g) Proteasome Inhibitor (MG 132), 50 micromolar final concentration. All protease inhibitors above, as well as DMSO, were from Sigma Chemical Company.
After the 15 minute incubation, 2×SDS-PAGE gel sample dye was added and the sample heated to 95 C for five minutes to denature the proteins. The denatured samples were then subjected to standard SDS-PAGE using a 4 percent stacking gel and 10 percent separating gel. Transfer to PVDF membrane, Western blot with anti-Stat-1 antibody, and color development were performed exactly as described above.

CC(C)C[C@@H](C=O)NC(=O)[C@H](CC(C)C)NC(=O)[C@H](CC(C)C)NC(=O)OCc1ccccc1 [MG 132] (Cbz-Leu-Leu-Leu-aldehyde)
degradation of Stat-1 protein: inhibited
